Values of other authors, collected in US6310089A, “Composition for the administration of a D1-agonists” (West Pharmaceutical Services Drug Delivery & Clinical …, priority 1998, dated 2001).

Columns and labels:
Parkinson's disease = details: D1 partial agonists

SMILES	agonism at dopamine D1 receptors (dopamine D1 receptors)	evaluation outcome (Parkinson's disease)
CN1Cc2ccccc2C2c3cccc4[nH]cc(c34)CC21 (single isomer, unassigned) [CY208.243]	partial agonists	inconclusive results
Oc1cc2c(cc1O)C(c1ccccc1)CNCC2 (stereo not shown) [SKF 38393]	partial agonists	inconclusive results
